Experimental data taken from ChEMBL document CHEMBL5244269, “Improving metabolic stability and removing aldehyde oxidase liability in a 5-azaquinazoline series of IRAK4 inhibitors” (Bioorg Med Chem, 2020).

What was measured:
Assay type in all cases: functional
[1] = system: SUD4; assay: Growth inhibition of human SU-DHL-4 cells at 1.7 uM incubated for 3 days in presence of 0.033 uM acalabrutinib relative to control; conditions: SU-DHL-4, 72 h, time 3 day, read-out: GI
[2] = system: SUD4; assay: Growth inhibition of human SU-DHL-4 cells at 1.7 uM incubated for 3 days in presence of 0.017 uM acalabrutinib relative to control; conditions: SU-DHL-4, 72 h, time 3 day, read-out: GI
[3] = system: SUD4; assay: Growth inhibition of human SU-DHL-4 cells at 1.7 uM incubated for 3 days in presence of 0.003 uM acalabrutinib relative to control; conditions: SU-DHL-4, 72 h, time 3 day, read-out: GI
[4] = system: SUD4; assay: Growth inhibition of human SU-DHL-4 cells at 0.33 uM incubated for 3 days in presence of 0.33 uM acalabrutinib relative to control; conditions: SU-DHL-4, 72 h, time 3 day, read-out: GI
[5] = system: SUD4; assay: Growth inhibition of human SU-DHL-4 cells at 0.33 uM incubated for 3 days in presence of 0.17 uM acalabrutinib relative to control; conditions: SU-DHL-4, 72 h, time 3 day, read-out: GI
[6] = system: SUD4; assay: Growth inhibition of human SU-DHL-4 cells at 0.33 uM incubated for 3 days in presence of 0.033 uM acalabrutinib relative to control; conditions: SU-DHL-4, 72 h, time 3 day, read-out: GI
[7] = system: SUD4; assay: Growth inhibition of human SU-DHL-4 cells at 0.33 uM incubated for 3 days in presence of 0.017 uM acalabrutinib relative to control; conditions: SU-DHL-4, 72 h, time 3 day, read-out: GI
[8] = system: SUD4; assay: Growth inhibition of human SU-DHL-4 cells at 0.17 uM incubated for 3 days in presence of 0.33 uM acalabrutinib relative to control; conditions: SU-DHL-4, 72 h, time 3 day, read-out: GI
[9] = system: SUD4; assay: Growth inhibition of human SU-DHL-4 cells at 0.33 uM incubated for 3 days in presence of 0.003 uM acalabrutinib relative to control; conditions: SU-DHL-4, 72 h, time 3 day, read-out: GI
[10] = system: SUD4; assay: Growth inhibition of human SU-DHL-4 cells at 0.17 uM incubated for 3 days in presence of 0.17 uM acalabrutinib relative to control; conditions: SU-DHL-4, 72 h, time 3 day, read-out: GI
[11] = system: SUD4; assay: Growth inhibition of human SU-DHL-4 cells at 0.17 uM incubated for 3 days in presence of 0.033 uM acalabrutinib relative to control; conditions: SU-DHL-4, 72 h, time 3 day, read-out: GI
[12] = system: SUD4; assay: Growth inhibition of human SU-DHL-4 cells at 0.17 uM incubated for 3 days in presence of 0.017 uM acalabrutinib relative to control; conditions: SU-DHL-4, 72 h, time 3 day, read-out: GI
[13] = system: SUD4; assay: Growth inhibition of human SU-DHL-4 cells at 0.17 uM incubated for 3 days in presence of 0.003 uM acalabrutinib relative to control; conditions: SU-DHL-4, 72 h, time 3 day, read-out: GI
[14] = system: OCI-Ly10; assay: Growth inhibition of human OCILY10 cells at 0.17 uM incubated for 3 days in presence of 0.017 uM acalabrutinib relative to control; conditions: OCI-Ly10, 72 h, time 3 day, read-out: GI
[15] = system: OCI-Ly10; assay: Growth inhibition of human OCILY10 cells at 0.17 uM incubated for 3 days in presence of 0.033 uM acalabrutinib relative to control; conditions: OCI-Ly10, 72 h, time 3 day, read-out: GI
[16] = system: OCI-Ly10; assay: Growth inhibition of human OCILY10 cells at 0.17 uM incubated for 3 days in presence of 0.17 uM acalabrutinib relative to control; conditions: OCI-Ly10, 72 h, time 3 day, read-out: GI
[17] = system: OCI-Ly10; assay: Growth inhibition of human OCILY10 cells at 0.17 uM incubated for 3 days in presence of 0.33 uM acalabrutinib relative to control; conditions: OCI-Ly10, 72 h, time 3 day, read-out: GI
[18] = system: OCI-Ly10; assay: Growth inhibition of human OCILY10 cells at 0.33 uM incubated for 3 days in presence of 0.003 uM acalabrutinib relative to control; conditions: OCI-Ly10, 72 h, time 3 day, read-out: GI
[19] = system: OCI-Ly10; assay: Growth inhibition of human OCILY10 cells at 0.33 uM incubated for 3 days in presence of 0.017 uM acalabrutinib relative to control; conditions: OCI-Ly10, 72 h, time 3 day, read-out: GI
[20] = system: OCI-Ly10; assay: Growth inhibition of human OCILY10 cells at 0.33 uM incubated for 3 days in presence of 0.033 uM acalabrutinib relative to control; conditions: OCI-Ly10, 72 h, time 3 day, read-out: GI
[21] = system: OCI-Ly10; assay: Growth inhibition of human OCILY10 cells at 0.33 uM incubated for 3 days in presence of 0.17 uM acalabrutinib relative to control; conditions: OCI-Ly10, 72 h, time 3 day, read-out: GI
[22] = system: OCI-Ly10; assay: Growth inhibition of human OCILY10 cells at 0.33 uM incubated for 3 days in presence of 0.33 uM acalabrutinib relative to control; conditions: OCI-Ly10, 72 h, time 3 day, read-out: GI
[23] = system: OCI-Ly10; assay: Growth inhibition of human OCILY10 cells at 1.7 uM incubated for 3 days in presence of 0.017 uM acalabrutinib relative to control; conditions: OCI-Ly10, 72 h, time 3 day, read-out: GI
[24] = system: OCI-Ly10; assay: Growth inhibition of human OCILY10 cells at 1.7 uM incubated for 3 days in presence of 0.033 uM acalabrutinib relative to control; conditions: OCI-Ly10, 72 h, time 3 day, read-out: GI
[25] = system: OCI-Ly10; assay: Growth inhibition of human OCILY10 cells at 1.7 uM incubated for 3 days in presence of 0.17 uM acalabrutinib relative to control; conditions: OCI-Ly10, 72 h, time 3 day, read-out: GI
[26] = system: OCI-Ly10; assay: Growth inhibition of human OCILY10 cells at 1.7 uM incubated for 3 days in presence of 0.33 uM acalabrutinib relative to control; conditions: OCI-Ly10, 72 h, time 3 day, read-out: GI
[27] = system: OCI-Ly10; assay: Growth inhibition of human OCILY10 cells at 3.3 uM incubated for 3 days in presence of 0.003 uM acalabrutinib relative to control; conditions: OCI-Ly10, 72 h, time 3 day, read-out: GI
[28] = system: OCI-Ly10; assay: Growth inhibition of human OCILY10 cells at 3.3 uM incubated for 3 days in presence of 0.033 uM acalabrutinib relative to control; conditions: OCI-Ly10, 72 h, time 3 day, read-out: GI
[29] = system: OCI-Ly10; assay: Growth inhibition of human OCILY10 cells at 3.3 uM incubated for 3 days in presence of 0.17 uM acalabrutinib relative to control; conditions: OCI-Ly10, 72 h, time 3 day, read-out: GI
[30] = system: OCI-Ly10; assay: Growth inhibition of human OCILY10 cells at 3.3 uM incubated for 3 days in presence of 0.33 uM acalabrutinib relative to control; conditions: OCI-Ly10, 72 h, time 3 day, read-out: GI
[31] = system: OCI-Ly10; assay: Growth inhibition of human OCILY10 cells at 10 uM incubated for 3 days in presence of 0.003 uM acalabrutinib relative to control; conditions: OCI-Ly10, 72 h, time 3 day, read-out: GI
[32] = system: OCI-Ly10; assay: Growth inhibition of human OCILY10 cells at 10 uM incubated for 3 days in presence of 0.017 uM acalabrutinib relative to control; conditions: OCI-Ly10, 72 h, time 3 day, read-out: GI
[33] = system: OCI-Ly10; assay: Growth inhibition of human OCILY10 cells at 10 uM incubated for 3 days in presence of 0.033 uM acalabrutinib relative to control; conditions: OCI-Ly10, 72 h, time 3 day, read-out: GI
[34] = system: OCI-Ly10; assay: Growth inhibition of human OCILY10 cells at 10 uM incubated for 3 days in presence of 0.17 uM acalabrutinib relative to control; conditions: OCI-Ly10, 72 h, time 3 day, read-out: GI
[35] = system: OCI-Ly10; assay: Growth inhibition of human OCILY10 cells at 10 uM incubated for 3 days in presence of 0.33 uM acalabrutinib relative to control; conditions: OCI-Ly10, 72 h, time 3 day, read-out: GI
[36] = system: SUD4; assay: Growth inhibition of human SU-DHL-4 cells at 1.7 uM incubated for 3 days in presence of 0.17 uM acalabrutinib relative to control; conditions: SU-DHL-4, 72 h, time 3 day, read-out: GI
[37] = system: SUD4; assay: Growth inhibition of human SU-DHL-4 cells at 1.7 uM incubated for 3 days in presence of 0.33 uM acalabrutinib relative to control; conditions: SU-DHL-4, 72 h, time 3 day, read-out: GI
[38] = system: SUD4; assay: Growth inhibition of human SU-DHL-4 cells at 3.3 uM incubated for 3 days in presence of 0.017 uM acalabrutinib relative to control; conditions: SU-DHL-4, 72 h, time 3 day, read-out: GI
[39] = system: SUD4; assay: Growth inhibition of human SU-DHL-4 cells at 3.3 uM incubated for 3 days in presence of 0.033 uM acalabrutinib relative to control; conditions: SU-DHL-4, 72 h, time 3 day, read-out: GI
[40] = system: SUD4; assay: Growth inhibition of human SU-DHL-4 cells at 3.3 uM incubated for 3 days in presence of 0.33 uM acalabrutinib relative to control; conditions: SU-DHL-4, 72 h, time 3 day, read-out: GI
[41] = system: SUD4; assay: Growth inhibition of human SU-DHL-4 cells at 10 uM incubated for 3 days in presence of 0.003 uM acalabrutinib relative to control; conditions: SU-DHL-4, 72 h, time 3 day, read-out: GI

For `Cc1ncc(-c2nc3c(NC(C)C)nc(Nc4cnn(C5CC6(C5)CN(C)C6)c4)nc3cc2F)cn1`, the inhibition of growth at 1.7 µM [1] was 3%, the inhibition of growth at 1.7 µM [2] was 3% and the inhibition of growth at 1.7 µM [3] was 3%. The inhibition of growth at 0.33 µM [4] was 6%, the inhibition of growth at 0.33 µM [5] was 4% and the inhibition of growth at 0.33 µM [6] was 3%. The inhibition of growth at 0.33 µM [7] was 3%, the inhibition of growth at 0.17 µM [8] was 6% and the inhibition of growth at 0.33 µM [9] was 3%. It also gave an inhibition of growth at 0.17 µM [10] of 3%, an inhibition of growth at 0.17 µM [11] of 2% and an inhibition of growth at 0.17 µM [12] of 3%. It also gave an inhibition of growth at 0.17 µM [13] of 3%, an inhibition of growth at 0.17 µM [14] of 97% and an inhibition of growth at 0.17 µM [15] of 137%. It also gave an inhibition of growth at 0.17 µM [16] of 172%, an inhibition of growth at 0.17 µM [17] of 173% and an inhibition of growth at 0.33 µM [18] of 51%. The inhibition of growth at 0.33 µM [19] was 158%, the inhibition of growth at 0.33 µM [20] was 177% and the inhibition of growth at 0.33 µM [21] was 185%. It also gave an inhibition of growth at 0.33 µM [22] of 183%, an inhibition of growth at 1.7 µM [23] of 196% and an inhibition of growth at 1.7 µM [24] of 196%. The inhibition of growth at 1.7 µM [25] was 197%, the inhibition of growth at 1.7 µM [26] was 195% and the inhibition of growth at 3.3 µM [27] was 189%. It also gave an inhibition of growth at 3.3 µM [28] of 196%, an inhibition of growth at 3.3 µM [29] of 196% and an inhibition of growth at 3.3 µM [30] of 195%. For the same compound, the inhibition of growth at 10 µM [31] was 196%, the inhibition of growth at 10 µM [32] was 197% and the inhibition of growth at 10 µM [33] was 198%. It also gave an inhibition of growth at 10 µM [34] of 199%, an inhibition of growth at 10 µM [35] of 198% and an inhibition of growth at 1.7 µM [36] of 3%. For the same compound, the inhibition of growth at 1.7 µM [37] was 6%, the inhibition of growth at 3.3 µM [38] was 4% and the inhibition of growth at 3.3 µM [39] was 4%. The inhibition of growth at 3.3 µM [40] was 7% and the inhibition of growth at 10 µM [41] was 7%.
